Data reported in patent US11795144B2, “Inhibitors of RAC1 and uses thereof for treating cancers” (INSTITUT NATIONAL DE LA SANTE ET DE LA RECHERCHE MEDICALE …, priority 2017, dated 2023).
“Also recorded” adds a separate entry of the source.

Legend:
[1] = molecular target: RAC1 (Homo sapiens, UniProt P63000)
[2] = test system: Rac; assay: Rac activator-induced membrane ruffling (actin reorganization) in 3T3 fibroblasts; assay type: cell-based; conditions: 3T3 cells, compound added 1 h before Rac activation
From the text: (§1) FIGS. 1 to 3 relate to the inhibition of the Rac-induced cell functions by compound (2) (or A4.1). […] Ruffles are indicated by arrows (left panel). Percentages of cells with ruffles were quantified (right panel). Results shown are representative of 3 independent experiments. […] Left panel, representative records with arrows indicating the cell location at different times. Right panel, quantification of cell speed in each experimental conditions. Results shown are representative of 2 independent experiments. […] Lower panel, quantification of cell adhesion. Results shown are representative of 3 independent experiments.
(§2) cDNA coding for constitutive active Rac1 (Rac^V12-RFP) were transfected in NIH3T3 with jetPEI (Polyplus transfection) according to the manufacturer's instructions. After treatments, fibroblasts were fixed with 4% paraformaldehyde in PBS, permeabilized in PBS 0.5% Triton X-100, and incubated with 130 μg/mL of FITC-conjugated phalloidin (Sigma) to visualize F-actin. After staining, images were captured by a fluorescence microscope (Nikon). The actin cytoskeleton organization was analyzed to observe Rac1-dependent ruffle formation.

[3] = test system: 3T3 cells; assay: Unidirectional cell migration (cell speed); assay type: cell-based
From the text: Percentages of cells with ruffles were quantified (right panel). Results shown are representative of 3 independent experiments. […] Left panel, representative records with arrows indicating the cell location at different times. Right panel, quantification of cell speed in each experimental conditions. Results shown are representative of 2 independent experiments. […] Lower panel, quantification of cell adhesion. Results shown are representative of 3 independent experiments.
Cells (1000/well) were seeded in a 96 well plate with […] fibronectin stripes (CytooPlates Motility, CYTOO) in medium with 1% SVF and allowed to spread for 4 hours before capturing time-lapse images for 24 hours (image/10 minutes) on a Widefield Leica DMI 6000B drove with Metamorph software. Cells speed was measured with ImageJ software.

[4] = test system: fibroblast; assay: Cell adhesion assay using impedance technology (xCELLigence); assay type: cell-based; conditions: fibroblasts pre-treated with 10 μm
From the text: as §1
Cells (10000/well) were seeded in a 96 well plate microtiter xCELLigence assay plate (E-Plate) (ACEA Biosciences Inc.) and placed on the Real-time xCELLigence Cell Analyzer (Roche Applied Science) platform at 37° C. to measure the “cell index” every 5 min for a period of 6 hours. The cell index unit is defined as (Rn−Rb)/15. Rn is the cell electrode impedance of the well when it contains cells. Rb is the background impedance of the well with the media alone.

[5] = molecular target: T1, Rac^V12 (Homo sapiens, UniProt P63000, G12V); assay: Ruffle formation and membrane location of constitutive active RFP-Rac^V12 in fibroblasts; assay type: cell-based
T1 construct: expressed in transfected cells; host or cells: NIH3T3
Experimental: as §2
Rac1 over activity is implicated in various steps of oncogenesis including initiation, progression, invasion, and metastasis. The ability of (2) to inhibit a constitutive active mutant of Rac1, Rac^V12 was evaluated. In control condition, expression of RFP-Rac^V12 in fibroblasts induces changes in actin cytoskeleton leading to ruffles formation (data not shown). This effect is prevented by (2) (10 μM).

[6] = test system: MDA-MB-468; assay: Cancer cell invasion in 3D gel; assay type: cell-based; conditions: 10 μM, after 48 h
Experimental: (§3) FIG. 4 relates to the inhibition of the Rac-dependent cell functions involved in cancer cells by (2). FIG. 4A: Breast cancer cell line MDA-MB-468 and primary human fibroblast from breast cancer tumors were seeded in 3D-gel containing or not (2). […] FIG. 4B: Effect of (2) on foci assay.
(§4) To confirm this hypothesis, cancer cells invasion was analyzed in 3D gel. The breast cancer cell line MDA-MB-468 or primary fibroblasts from human breast cancer were seeded in gels containing or not (2) (10 μM).

[7] = test system: primary fibroblasts from human breast cancer; assay: Invasion in 3D gel of primary fibroblasts from breast cancer; assay type: cell-based; conditions: 10 μM, after 48 h
Experimental: as §3, §4

[8] = test system: MCF-7 cells; assay: Primary focus formation assay; assay type: cell-based; conditions: MCF-7, 3 weeks of treatment
Experimental: For primary focus formation assays, MCF-7 cells were plated at a density of 10^5 cells/well of a 6-well plate. Cells were allowed to reach confluency and were maintained on complete growth medium supplemented with indicated concentration of A4.1 (or compound (2)) or vehicle until focus formation occurred. Foci of transformed cells was quantitated after 21 days.
Malignant transformation of cells is typically associated with increased proliferation, loss of contact inhibition, acquisition of anchorage-independent growth potential, and the ability to form foci in culture cells. A focus formation assay was used to test whether (2) affects the clonogenic potential of breast cancer cells MCF-7. After 3 weeks of treatments, the cells's foci were fixed, stained and counted ([…]).

[9] = Pharmacokinetics after intraperitoneal injection; assay type: in vivo, male C57BL6 adult mice; conditions: male, C57BL6, mouse, plasma; IP route, mice
Experimental: FIG. 5 relates to the pharmacokinetics of compound (2) by analyzing kidney, brain, liver, heart, plasma samples, and lungs from male C57BL6 adult mice after intraperitonal injection. The curves of this Figure represent the concentration in μg/g over time in minutes.
(§5) To test whether compound (2) would have an acceptable therapeutic index in vivo, the pharmacokinetics of compound (2) were measured by analyzing plasma samples, brain, heart, kidney, liver and lungs from male C57BL6 adult mice after intraperitonal injection (IP) (FIG. 5). In addition, we evaluated the effect of chronic (daily during 4 weeks) IP injections of compound (2) on physiological parameters: body weight, glycemia, hepatic and renal functions (FIGS. 6 to 8).

[10] = Chronic IP injections: body weight, glycemia, hepatic and renal functions; assay type: in vivo, mice; conditions: 25 mg/kg IP daily during 4 weeks
Experimental: FIGS. 6 to 8 relate to the effect of chronic IP injections of compound (2) on physiological parameters: body weight, glycemia, hepatic and renal functions.
as §5

[11] = test system: MDA-MB-468 (Luciferase+) cell line; assay: Metastasis in xenograft mouse tumor model; assay type: in vivo, NMRI mice; conditions: 25 mg/kg/d IP during 4 weeks after exeresis of primary tumor
Experimental: FIG. 9 relates to the in vivo efficiency of compound (2) to inhibit metastasis in a xenograft mouse tumor model using MDA-MB-468 (Luciferase+) cell line in 5-week-old NMRI mice.
The in vivo efficiency of compound (2) to inhibit metastasis was evaluated in a xenograft mouse tumor model using MDA-MB-468 (Luciferase+) cell line in 5-week-old NMRI mice. When the tumor volume reached 1,000 mm^3, exeresis of the primary tumor was done to monitor predominantly metastasis initiation and progression. Compound (2) was administered everyday via intraperitoneal injection (25 mg/kg/d) during 4 weeks. Then, xenografted mice were sacrified and organs were imaged (FIGS. 9A and 9B).

| Compound | IC50 [1] | Relative activity (NSC23766) ([1]; compared with NSC23766) | Efficiency of Rac activator to induce ruffle / actin reorganization [2] | Efficiency of Rac activator to induce ruffle / actin reorganization ([2]; listed as A4.1) | Cell migration (cell speed) [3] | Cell adhesion [4] | Location of Rac^V12 at the plasma membrane [5] | Ruffles formation induced by RFP-Rac^V12 ([5]; 10 μM) | Decrease of cell invasion compared to control [6] | Decrease of cell invasion compared to control [7] | IC50 ([8]; Homo sapiens, MCF7, 504 h) | Focus diameter and focus numbers compared with control cells [8] | bioavailability [9] | Side effects after chronic injection [10] | Metastases [11] |
| --- | --- | --- | --- | --- | --- | --- | --- | --- | --- | --- | --- | --- | --- | --- | --- |
| COc1ccc(OC)c(NS(=O)(=O)c2ccc(NC(=O)CCCc3ccc(C)cc3)cc2)c1 [(3), N-(4-(N-(2,5-dimethoxyphenyl)sulfamoyl)phenyl)-4-(p-tolyl) Butanamide] | 0.1 nM | > |  |  |  |  |  |  |  |  |  |  |  |  |  |
| COc1ccc(OC)c(NS(=O)(=O)c2ccc(NC(=O)CCSc3ccc(C)cc3)cc2)c1 [Compound (2), N-(4-(N-(2,5-dimethoxyphenyl)sulfamoyl)phenyl)-3-(p-tolylthio)propanamide] |  |  | strongly decreased | blocks Rac activator-induced actin reorganization | decreases cell migration; also recorded: higher inhibition | decreases cell adhesion; also recorded: higher inhibition | limits the location of Rac^V12 at the plasma membrane | prevented | > 50% | > 50% | 2.3 nM | smaller focus diameter as well as focus numbers | 81.5% | no major side effects | decreases significantly bone, hepatic, uterine and ovarian metastases |
| CCN(CC)CCCC(C)Nc1nc(C)cc(Nc2ccc3nc(C)cc(N)c3c2)n1 (stereo not shown) [NSC23766, reference compound] |  |  |  |  |  | slow down |  |  |  |  |  |  |  |  |  |
